Article PMC12621189, “Optimization of Selective and CNS Penetrant Alkyne-Based TREK Inhibitors: The Discovery and Characterization of ONO-9517601 (VU6022856) and ONO-7927846 (VU6024391)” (Journal of Medicinal Chemistry, 2025)

Legend:
ChromatoLogD = type: physicochemical
[1] = Rat in vivo PK (plasma clearance) in SAR tables; details: read-out: Rat CLp
[2] = Rat brain to plasma ratio (Kp, Kp,uu); type: in vivo; details: male, Sprague Dawley, brain and plasma, intravenous, 0.2 mg/kg; rat brain:plasma
Procedure: Determination of brain to plasma ratio:
All animal study procedures were approved by the Institutional Animal Care and Use Committee and were conducted in accordance with the National Institutes of Health regulations of animal care covered in Principles of Laboratory Animal Care (National Institutes of Health). All rats were fasted overnight prior to testing.
For determination of the brain over plasma ratio (Kp), compounds were formulated in 8% ethanol, 32% PEG400 and 60% DMSO (v/v/v) and administered as a single 0.2 mg/kg IV dose (1 mL/kg) to male, Sprague Dawley rats (n = 1) via injection into a surgically-implanted jugular vein catheter. At 15 min post dosing, blood sample was collected into chilled, K2EDTA anticoagulant-fortified tube and immediately placed on wet ice. The blood sample was then centrifuged (1700 rcf, 5 minutes, 4 °C) to obtain plasma sample. At the same post-administration time point, whole brain sample was obtained by rapid dissection, rinsed with PBS, and immediately frozen in individual tissue collection box (dry ice). All brain and plasma samples were stored at -80 °C until […]
Sample Analysis: Concentrations in plasma and brain homogenates were quantified by liquid chromatography tandem mass spectrometry (LC-MS/MS). Whole brains were homogenized in 3 mL of 70:30 IPA:water in a mini bead beater for 3 min, and centrifuged at 3,500 g for 5 min. 5 uL of the supernatant was diluted in 15 uL of blank plasma for quantification of the analytes. Plasma samples were centrifuged at 3,500 g for 5 min. A standard curve was generated by diluting the analytes DMSO stocks with blank plasma to obtain a final concentration of 10,000 ng/ml followed by a serial dilution down to 0.5 ng/ml. Quality controls were generated by a serial dilution of the 5,000 ng/ml standard curve solution in blank plasma to obtain 3 concentrations of 500, 50, and 5 ng/ml. 20 uL of brain diluted in plasma, plasma, blank plasma, standard curve and QC samples were loaded in a V-bottom 96-well plate. 120 uL of acetonitrile containing 0.05 uM carbamazepine (internal standard) was added to each well and the plate was centrifuged at 3,500 g for 5 min. 60 uL of the supernatant of each well (protein free) was transferred to a new 96-well plate containing 60 uL of water. The plates were sealed for analysis by LC-MS/MS.
Plasma and brain tissue samples originating from in vivo studies were analyzed by electrospray ionization using an AB Sciex Q-TRAP 5500 (Foster City, CA) that was coupled to a Shimadzu LC-20AD pump (Columbia, MD) and a Leap Technologies CTC PAL auto-sampler (Carrboro, NC). Analytes were separated by gradient elution using a C18 column (3 x 50 mm, 3 mm; Fortis Technologies Ltd, Cheshire, UK) that was thermostated at 40 °C. HPLC mobile phase A was 0.1% formic acid in water (pH unadjusted); mobile phase B was 0.1% formic acid in acetonitrile (pH […]
min, with an isocratic hold for 0.5 min, before transitioning to 10% B over 0.05 min. The column was re-equilibrated (1 min) before the next sample injection. The total run time was 2.55 min, and the HPLC flow rate was 0.5 ml/min. The source temperature was set at 500 °C, and mass spectral analyses were performed using a Turbo-Ion spray source in positive ionization mode (5.0-kV spray voltage) and using multiple-reaction monitoring of transitions specific for the analytes. All data were analyzed using AB Sciex Analyst 1.5.1 software.
Brain plasma concentration ratio (Kp) was calculated by dividing brain concentration by plasma concentration for each animal. Unbound brain to unbound plasma concentration ratio (Kp,uu) is calculated using the following formula: Kp,uu = (Brain ng/g x brain fu)/(plasma ng/ml x plasma fu).
In-vitro determination of blood-brain barrier penetration potential
Blood-brain barrier penetration was determined using MDR1-MDCK cell monolayers by Absorption Systems, following their protocol. In short, compounds were incubated at […] final concentration on one side of the cell monolayer for 2 hours. […]

[3] = Liver microsome intrinsic clearance, human; type: in vitro ADME; details: pH 7.4; human liver microsomes, predicted intrinsic clearance; read-out: LMS CLINT human
Procedure: were incubated in 100 mM potassium phosphate pH 7.4 buffer with 3 mM MgCl2 at 37 °C with constant shaking. After a 5 min preincubation, the reaction was initiated by the addition of NADPH (1 mM). At selected time intervals (0, 3, 7, 15, 25, and 45 min), aliquots were taken and subsequently placed into a 96-well plate containing cold acetonitrile with internal standard (50 ng/mL carbamazepine). Plates were then centrifuged at 3000 rcf (4 °C) for 10 min, and the supernatant was transferred to a separate 96-well plate and diluted 1:1 with water for LC/MS/MS analysis. The in vitro half-life ( 1/2, min, Eq. 1), intrinsic clearance (CLint, mL/min/kg, Eq. 2), and subsequent predicted hepatic clearance (CLhep, mL/min/kg, Eq. 3) was determined employing the […]
where k represents the slope from linear regression analysis of the natural log percent remaining of a test compound as a function of incubation time […]
(2) CLint = in vitroT x mg microsomes x gram liver x kg body wt ascale-up factors: of 20 (human) or 45 (rat) […]
where Qh (hepatic blood flow, mL/min/kg) is 21 (human) or 70 (rat).
LC/MS/MS Bioanalysis of Samples from Plasma Protein Binding and Intrinsic Clearance […]
Samples were analyzed on a Thermo Electron TSQ Quantum Ultra triple quad mass spectrometer (San Jose, CA) via electrospray ionization (ESI) with two Themo Electron Accella pumps (San Jose, CA), and a Leap Technologies CTC PAL autosampler (Carrboro, NC). Analytes were […]

[4] = Liver microsome intrinsic clearance, mouse; type: in vitro ADME; details: pH 7.4; mouse liver microsomes, predicted intrinsic clearance; read-out: LMS CLINT mouse
human TREK-1 (hTREK-1) = biological target: T1, human TREK-1 (hTREK-1) (Homo sapiens, UniProt O95069); assay: TREK-1 thallium flux assay (CHO-K1 cells stably expressing hTREK-1); type: cell-based; details: human TREK-1, thallium flux; read-out: h TREK-1 Tl+ IC50
T1 construct: expressed in transfected cells
T1 sequence (O95069 1-426): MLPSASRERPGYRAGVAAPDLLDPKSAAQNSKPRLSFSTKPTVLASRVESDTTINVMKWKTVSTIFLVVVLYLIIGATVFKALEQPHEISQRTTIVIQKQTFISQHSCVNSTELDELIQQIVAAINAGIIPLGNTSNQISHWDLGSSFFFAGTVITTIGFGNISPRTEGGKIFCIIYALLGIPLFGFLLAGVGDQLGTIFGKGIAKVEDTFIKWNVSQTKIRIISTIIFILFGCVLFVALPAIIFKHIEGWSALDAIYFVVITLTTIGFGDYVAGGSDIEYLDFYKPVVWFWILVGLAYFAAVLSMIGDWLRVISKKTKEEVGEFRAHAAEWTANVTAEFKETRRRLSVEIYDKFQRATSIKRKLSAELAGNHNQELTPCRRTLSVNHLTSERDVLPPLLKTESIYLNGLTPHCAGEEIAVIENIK
Procedure: Procedures for Biological Experiments
TREK-1 Thallium flux assay
CHO-K1 cells stably expressing hTREK-1 were cultured in T225 flask. The cells were loaded with FluxOR dye and plated in 384 well plate at the experiment day. Test compounds or control compound (tert-butyl (3-((4-(benzyloxy)-2-methylphenyl)carbamoyl)-4-chlorophenyl)carbamate) or 0.3% DMSO (vehicle control) were added directly to the cell plates and incubated for 10 min, and then treated with thallium stimulus buffer to initiate thallium flux.
To measure the efficacy and potency of test compounds, the change in fluorescence intensity (ΔRatio) and % inhibition were calculated using the following equations:
ΔRatio = (fluorescence intensity at 25 seconds after thallium addition)/(average of fluorescent intensity before thallium addition)
0.3% DMSO - ΔRatio of 10 μM control compound)}x100
% inhibition vs compound concentration were plotted in XLfit and calculated IC50.
CHO-K1 cells stably expressing human TREK-1 (hTREK-1) were cultured in T225 flask.
The cells were loaded with FluxOR dye and plated in 384 well plate at the experiment day. Test compounds or control compound (tert-butyl (3-((4-(benzyloxy)-2-methylphenyl)carbamoyl)-4-chlorophenyl)carbamate) or 0.3% DMSO (vehicle control) which were prepared on separate plates were added to the cell plates and incubated for 10 min, and then the cells with test compounds or […]
chlorophenyl)carbamate) or 0.3% DMSO (vehicle control) were treated with thallium stimulus buffer to initiate thallium flux. To measure the efficacy and potency of test compounds, the change in fluorescence intensity (ΔRatio) and % inhibition were calculated using the following equations: […]

mouse TREK-1 (mTREK-1) = biological target: T2, mouse TREK-1 (mTREK-1) (Mus musculus, UniProt P97438); assay: mTREK-1 manual patch clamp assay; type: cell-based; details: mouse TREK-1, manual patch clamp; read-out: TREK-1 IC50 (mouse, MPC)
T2 construct: expressed in transfected cells; host or cells: CHO-K1 (transient)
T2 sequence (P97438 1-426): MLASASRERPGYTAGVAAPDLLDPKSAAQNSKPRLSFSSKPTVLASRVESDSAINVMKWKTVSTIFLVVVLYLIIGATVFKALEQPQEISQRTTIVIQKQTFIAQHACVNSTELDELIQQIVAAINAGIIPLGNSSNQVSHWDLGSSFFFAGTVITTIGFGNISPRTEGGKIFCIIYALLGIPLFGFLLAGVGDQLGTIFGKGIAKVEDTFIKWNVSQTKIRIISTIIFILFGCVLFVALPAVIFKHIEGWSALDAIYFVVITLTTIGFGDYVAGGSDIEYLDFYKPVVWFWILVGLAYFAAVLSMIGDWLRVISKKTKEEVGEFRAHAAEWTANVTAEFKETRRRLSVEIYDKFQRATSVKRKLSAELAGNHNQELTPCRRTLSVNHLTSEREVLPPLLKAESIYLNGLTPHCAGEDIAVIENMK
Procedure: (§1) hTREK-1 and mTREK-1 patch clamp assay
(§2) CHO-K1 cells stably expressing hTREK-1 or CHO-K1 cells transiently expressing mouse TREK-1 (mTREK-1) were plated on glass coverslips, and voltage clamped in the whole-cell configuration of the patch clamp technique. Cells were voltage clamped at a holding potential of - 80 mV and the stepped to 0 mV for 500 msec. The voltage was subsequently ramped from -120mV to +80 mV over a 500 msec duration. This step-ramp protocol was repeated every 10 sec. The bathing solution contained the following: 135 mM NaCl, 5 mM KCl, 2 mM CaCl2, 1 mM MgCl2, 5 mM D-Glucose, 10 mM HEPES, 10 mM sucrose (adjusted to pH 7.4 with NaOH, 300 mosmol/kg H2O). The pipette solution contained the following: 135 mM KCl, 2 mM MgCl2, 1 mM EGTA, 10 mM HEPES, 2 mM Na2ATP (adjusted to pH 7.35 with KOH, 285 mosmol/kg H2O). Test […]
(§3) compounds were dissolved into the bathing solution. The effects of test compound on the currents were calculated at 0 mV using the following equations:
(§4) % inhibition = (1-post current/pre current) x 100
(§5) % inhibition vs compound concentrations were plotted in GraphPad Prism and calculated IC50. […]

hTREK-1 = biological target: T3, hTREK-1 (Homo sapiens, UniProt O95069); assay: hTREK-1 manual patch clamp assay; type: cell-based; details: human TREK-1, manual patch clamp; read-out: TREK-1 IC50 (human, MPC)
T3 construct: expressed in transfected cells
T3 sequence (O95069 1-426): T1 sequence (O95069 1-426)
Procedure: as §1, §2, §3, §4, §5

Row | Structure (SMILES) | chromatographic logD (ChromatoLogD) | clearance [1] | Kp at 15 min [2] | CLint scaled at 1 µM [3] | CLint scaled at 1 µM [4] | IC50 (human TREK-1 (hTREK-1)) | IC50 (mouse TREK-1 (mTREK-1)) | IC50 (hTREK-1)
1 | Cc1cc(C#Cc2ccccc2)cnc1NC(=O)c1cc(C(=O)N2CC(F)(F)C2)ccc1Cl [Compound 13a, 2-Chloro-5-(3,3-difluoroazetidine-1-carbonyl)-N-[3-methyl-5-(2-phenylethynyl)-2-pyridyl]benzamide] | 4.03 | 328 mL/min/kg | 0.84 | 18 mL/min/kg | 75 mL/min/kg | 320 nM | – | –
2 | Cc1cc(C#Cc2ccccc2)cnc1NC(=O)c1cc(OCC2COCCO2)ccc1Cl (stereo not shown) [Compound 13c, 2-Chloro-5-(1,4-dioxan-2-ylmethoxy)-N-[3-methyl-5-(2-phenylethynyl)-2-pyridyl]benzamide] | 4.14 | 16.2 mL/min/kg | 0.89 | 36 mL/min/kg | 107 mL/min/kg | 130 nM | – | –
3 | Cc1cc(C#Cc2ccccc2)cnc1NC(=O)c1cc(OC[C@H]2COCCO2)ccc1Cl [Compound 13d, (R)-5-((1,4-Dioxan-2-yl)methoxy)-2-chloro-N-(3-methyl-5-(phenylethynyl)pyridin-2-yl)benzamide] | 4.14 | – | – | – | – | 110 nM | 1200 nM | 11 nM
